Target: CD73 (Homo sapiens (Human), UniProt P21589)
Experiment: Biochemical assay: inhibition of CD73 activity (AMP hydrolysis, Malachite Green readout)
Details: CD73 0.3208 nM, AMP 15 μM, 25 mM Tris-HCl pH 7.4, RT, absorbance 620 nm
Procedure, shortened: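 Phosphate from AMP hydrolysis (15 μM AMP, 10 min, RT) was detected by Malachite Green absorbance to give IC50s. Enzyme at 320 pM was first exposed 15 min to compounds, dosed from 100 μM in ½-log steps, in Tris pH 7.4 buffer with MgCl2, Brij-35 and BSA.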

CD73, sequence (P21589 27-574): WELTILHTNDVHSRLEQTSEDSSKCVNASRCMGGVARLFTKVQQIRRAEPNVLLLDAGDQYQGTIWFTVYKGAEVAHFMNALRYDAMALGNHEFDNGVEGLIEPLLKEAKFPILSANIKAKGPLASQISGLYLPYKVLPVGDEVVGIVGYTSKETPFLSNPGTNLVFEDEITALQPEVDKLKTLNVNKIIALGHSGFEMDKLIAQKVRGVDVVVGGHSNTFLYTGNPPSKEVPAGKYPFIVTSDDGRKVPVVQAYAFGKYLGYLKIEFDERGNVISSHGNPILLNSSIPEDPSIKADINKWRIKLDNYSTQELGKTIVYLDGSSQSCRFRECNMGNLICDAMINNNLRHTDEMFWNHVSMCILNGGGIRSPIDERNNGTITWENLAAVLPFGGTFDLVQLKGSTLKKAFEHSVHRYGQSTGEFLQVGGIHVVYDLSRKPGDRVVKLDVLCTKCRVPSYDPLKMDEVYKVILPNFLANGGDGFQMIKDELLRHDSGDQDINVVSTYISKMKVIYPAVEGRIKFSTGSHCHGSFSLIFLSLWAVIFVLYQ

| Structure (SMILES) | IC50 [nM] |
| --- | --- |
| C[C@](CS(C)(=O)=O)(OC[C@H]1O[C@@H](n2ncc3c(NC4CCCC4)nc(Cl)nc32)[C@H](O)[C@@H]1O)P(=O)(O)O [Example 73, ((S)-2-(((2R,3S,4R,5R)-5-(6-chloro-4-(cyclopentylamino)-1H-pyrazolo[3,4-d]pyrimidin-1-yl)-3,4-dihydroxytetrahydrofuran-2-yl)methoxy)-1-(methyslulfonyl)propan-2-yl)phosphonic acid] | ≤ 100 |
| O=P(O)(O)CS(=O)(=O)C[C@H]1O[C@@H](n2nnc3c(N[C@@H]4CCc5ccccc54)cc(Cl)nc32)[C@H](O)[C@@H]1O [Example 83] | ≤ 100 |
| O=P(O)(O)[C@@](CO)(Cc1nn[nH]n1)OC[C@H]1O[C@@H](n2ncc3c(NCC4CC4)nc(Cl)nc32)[C@H](O)[C@@H]1O (racemic) [Example 197, rac-((R)-2-(((2R,3S,4R,5R)-5-(6-chloro-4-((cyclopropylmethyl)amino)-1H-pyrazolo[3,4-d]pyrimidin-1-yl)-3,4-dihydroxytetrahydrofuran-2-yl)methoxy)-1-hydroxy-3-(2H-tetrazol-5-yl)propan-2-yl)phosphonic acid] | ≤ 100 |
| CC(CO)(OC[C@H]1O[C@@H](n2ncc3c(N[C@@H]4CC[C@H]5CCC[C@H]54)nc(Cl)nc32)[C@H](O)[C@@H]1O)P(=O)(O)O (stereo partly drawn) [Example 133, (2-(((2R,3S,4R,5R)-5-(6-chloro-4-(((1R,3aR,6aR)-octahydropentalen-1-yl)amino)-1H-pyrazolo[3,4-d]pyrimidin-1-yl)-3,4-dihydroxytetrahydrofuran-2-yl)methoxy)-1-hydroxypropan-2-yl)phosphonic aci] | ≤ 100 |
| CC(CO)(OC[C@H]1O[C@@H](n2ncc3c(NC4CCCC4)nc(CCCO)nc32)[C@H](O)[C@@H]1O)P(=O)(O)O (stereo partly drawn) [Example 88, 2-(((2R,3S,4R,5R)-5-(4-(Cyclopentylamino)-6-(3-hydroxypropyl)-1H-pyrazolo[3,4-d]pyrimidin-1-yl)-3,4-dihydroxytetrahydrofuran-2-yl)methoxy)-1-hydroxypropan-2-ylphosphonic acid] | ≤ 100 |
| O=P(O)(O)C(CO)(CO)OC[C@H]1O[C@@H](n2ncc3c(NCC4CC4)nc(CO)nc32)[C@H](O)[C@@H]1O (racemic) [Example 202, rac-(2-(((2R,3S,4R,5R)-5-(4-((cyclopropylmethyl)amino)-6-(hydroxymethyl)-1H-pyrazolo[3,4-d]pyrimidin-1-yl)-3,4-dihydroxytetrahydrofuran-2-yl)methoxy)-1,3-dihydroxypropan-2-yl)phosphonic acid] | ≤ 100 |
| C[C@@](CO)(OC[C@H]1O[C@@H](n2ncc3c(NC4CCC4)nc(Cl)nc32)[C@H](O)[C@@H]1O)P(=O)(O)O [Example 101, ((R)-2-(((2R,3S,4R,5R)-5-(6-chloro-4-(cyclobutylamino)-1H-pyrazolo[3,4-d]pyrimidin-1-yl)-3,4-dihydroxytetrahydrofuran-2-yl)methoxy)-1-hydroxypropan-2-yl)phosphonic acid] | ≤ 100 |
| O=P(O)(O)C(CO)(CC1COC1)OC[C@H]1O[C@@H](n2ncc3c(NC4CCCC4)nc(Cl)nc32)[C@H](O)[C@@H]1O (mixture of isomers) [Example 167, rac-(2-(((2R,3S,4R,5R)-5-(6-chloro-4-(cyclopentylamino)-1H-pyrazolo[3,4-d]pyrimidin-1-yl)-3,4-dihydroxytetrahydrofuran-2-yl)methoxy)-1-hydroxy-3-(oxetan-3-yl)propan-2-yl)phosphonic acid] | ≤ 100 |
| CNc1nc(Cl)nc2c1cnn2[C@@H]1O[C@H](COC(CO)P(=O)(O)O)[C@@H](O)[C@H]1O (stereo partly drawn) [Example 29, (1-(((2R,3S,4R,5R)-5-(6-chloro-4-(methylamino)-1H-pyrazolo[3,4-d]pyrimidin-1-yl)-3,4-dihydroxytetrahydrofuran-2-yl)methoxy)-2-hydroxyethyl)phosphonic acid] | ≤ 100 |
| C[C@H](OC[C@H]1O[C@@H](n2ncc3c(NC4CCCC4)nc(Cl)nc32)[C@H](O)[C@@H]1O)P(=O)(O)O [Example 33, ((R)-1-(((2R,3S,4R,5R)-5-(6-chloro-4-(cyclopentylamino)-1H-pyrazolo[3,4-d]pyrimidin-1-yl)-3,4-dihydroxytetrahydrofuran-2-yl)methoxy)ethyl)phosphonic acid] | ≤ 100 |
| O=P(O)(O)C(CO)(CO)OC[C@H]1O[C@@H](n2ncc3c(NC4CCC4)nc(Cl)nc32)[C@H](O)[C@@H]1O [Example 116, (2-(((2R,3S,4R,5R)-5-(6-chloro-4-(cyclobutylamino)-1H-pyrazolo[3,4-d]pyrimidin-1-yl)-3,4-dihydroxytetrahydrofuran-2-yl)methoxy)-1,3-dihydroxypropan-2-yl)phosphonic acid] | ≤ 100 |
| COCC(C)(OC[C@H]1O[C@@H](n2ncc3c(NC4CCCC4)nc(CO)nc32)[C@H](O)[C@@H]1O)P(=O)(O)O (stereo partly drawn) [Example 90, (2-(((2R,3S,4R,5R)-5-(4-(Cyclopentylamino)-6-(hydroxymethyl)-1H-pyrazolo[3,4-d]pyrimidin-1-yl)-3,4-dihydroxytetrahydrofuran-2-yl)methoxy)-1-methoxypropan-2-yl)phosphonic acid] | ≤ 100 |
| CC(CO)(OC[C@H]1O[C@@H](n2nnc3c(NC4CCCC4)cc(Cl)nc32)[C@H](O)[C@@H]1O)P(=O)(O)O (stereo partly drawn) [Example 66, (2-(((2R,3S,4R,5R)-5-(5-chloro-7-(cyclopentylamino)-3H-[1,2,3]triazolo[4,5-b]pyridin-3-yl)-3,4-dihydroxytetrahydrofuran-2-yl)methoxy)-1-hydroxypropan-2-yl)phosphonic acid] | ≤ 100 |
| COC[C@@H](OC[C@H]1O[C@@H](n2nnc3c(NC4CCCC4)cc(Cl)nc32)[C@H](O)[C@@H]1O)P(=O)(O)O [Example 161, ((S)-1-(((2R,3S,4R,5R)-5-(5-chloro-7-(cyclopentylamino)-3H-[1,2,3]triazolo[4,5-b]pyridin-3-yl)-3,4-dihydroxytetrahydrofuran-2-yl)methoxy)-2-methoxyethyl)phosphonic acid] | ≤ 100 |
| COC[C@](CO)(OC[C@H]1O[C@@H](n2ncc3c(NC4CCCC4)nc(Cl)nc32)[C@H](O)[C@@H]1O)P(=O)(O)O [Example 150, ((R)-2-(((2R,3S,4R,5R)-5-(6-chloro-4-(cyclopentylamino)-1H-pyrazolo[3,4-d]pyrimidin-1-yl)-3,4-dihydroxytetrahydrofuran-2-yl)methoxy)-1-hydroxy-3-methoxypropan-2-yl)phosphonic acid] | ≤ 100 |
| COCC(COC)(OC[C@H]1O[C@@H](n2ncc3c(NC4CCCC4)nc(Cl)nc32)[C@H](O)[C@@H]1O)P(=O)(O)O [Example 87, [1-[[(2R,3S,4R,5R)-5-[6-Chloro-4-(cyclopentylamino)pyrazolo[3,4-d]pyrimidin-1-yl]-3,4-dihydroxy-tetrahydrofuran-2-yl]methoxy]-2-methoxy-1-(methoxymethyl)ethyl]phosphonic acid] | ≤ 100 |
| C[C@H](O)[C@@H](OC[C@H]1O[C@@H](n2ncc3c(NC4CCCC4)nc(Cl)nc32)[C@H](O)[C@@H]1O)P(=O)(O)O [Example 11, ((1S,2S)-1-(((2R,3S,4R,5R)-5-(6-chloro-4-(cyclopentylamino)-1H-pyrazolo[3,4-d]pyrimidin-1-yl)-3,4-dihydroxytetrahydrofuran-2-yl)methoxy)-2-hydroxypropyl)phosphonic acid] | ≤ 100 |
| Nc1nc(Cl)nc2c1cnn2[C@@H]1O[C@H](COC(CO)P(=O)(O)O)[C@@H](O)[C@H]1O (stereo partly drawn) [Example 59, (1-(((2R,3S,4R,5R)-5-(4-amino-6-chloro-1H-pyrazolo[3,4-d]pyrimidin-1-yl)-3,4-dihydroxytetrahydrofuran-2-yl)methoxy)-2-hydroxyethyl)phosphonic acid] | 100 to 1000 |
| COP(=O)(CP(=O)(O)O)OC[C@H]1O[C@@H](n2nnc3c(NC4CCCC4)cc(Cl)nc32)[C@H](O)[C@@H]1O (stereo partly drawn) [Example 54, (((((2R,3S,4R,5R)-5-(5-chloro-7-(cyclopentylamino)-3H-[1,2,3]triazolo[4,5-b]pyridin-3-yl)-3,4-dihydroxytetrahydrofuran-2-yl)methoxy)(methoxy)phosphoryl)methyl)phosphonic acid] | ≤ 100 |
| CC(CO)(OC[C@H]1O[C@@H](n2ncc3c(N[C@H]4CC[C@@H]5CCC[C@@H]54)nc(Cl)nc32)[C@H](O)[C@@H]1O)P(=O)(O)O (stereo partly drawn) [Example 141, (2-(((2R,3S,4R,5R)-5-(6-chloro-4-(((1S,3aS,6aS)-octahydropentalen-1-yl)amino)-1H-pyrazolo[3,4-d]pyrimidin-1-yl)-3,4-dihydroxytetrahydrofuran-2-yl)methoxy)-1-hydroxypropan-2-yl)phosphonic acid] | ≤ 100 |
| O=P(O)(O)[C@@](CO)(Cc1nn[nH]n1)OC[C@H]1O[C@@H](n2ncc3c(NC4CCCC4)nc(Cl)nc32)[C@H](O)[C@@H]1O [Example 104, ((R)-2-(((2R,3S,4R,5R)-5-(6-chloro-4-(cyclopentylamino)-1H-pyrazolo[3,4-d]pyrimidin-1-yl)-3,4-dihydroxytetrahydrofuran-2-yl)methoxy)-1-hydroxy-3-(2H-tetrazol-5-yl)propan-2-yl)phosphonic acid] | ≤ 100 |
| O=P(O)(O)C(CO)(Cc1nn[nH]n1)OC[C@H]1O[C@@H](n2ncc3c(NCC4CC4)nc(Cl)nc32)[C@H](O)[C@@H]1O (mixture of isomers) [Example 184, rac-(2-(((2R,3S,4R,5R)-5-(6-chloro-4-((cyclopropylmethyl)amino)-1H-pyrazolo[3,4-d]pyrimidin-1-yl)-3,4-dihydroxytetrahydrofuran-2-yl)methoxy)-1-hydroxy-3-(2H-tetrazol-5-yl)propan-2-yl)phosphonic acid] | ≤ 100 |
| C[C@@](CO)(OC[C@H]1O[C@@H](n2ncc3c(NC4CCCC4)nc(C#CCO)nc32)[C@H](O)[C@@H]1O)P(=O)(O)O (racemic) [Example 205, rac-((R)-2-(((2R,3S,4R,5R)-5-(4-(cyclopentylamino)-6-(3-hydroxyprop-1-yn-1-yl)-1H-pyrazolo[3,4-d]pyrimidin-1-yl)-3,4-dihydroxytetrahydrofuran-2-yl)methoxy)-1-hydroxypropan-2-yl)phosphonic acid] | ≤ 100 |

From patent publication US11325938B2, “CD73 inhibitors” (ORIC Pharmaceuticals, Inc., priority 2018, dated 2022)
